# Data as given in US11938104B1, “Compositions and methods for prevention and treatment of coronavirus and related disorders” (Abrexa Pharmaceuticals, Inc., priority 2021, dated 2024).
# Like-named read-outs stand apart in the source and are kept apart here.
# What was measured:
# male Sprague Dawley rats = type: in vivo, rat
# Male SD rats = experiment: J147 dose-response, 2-hour suture MCAO-induced ischemia followed by reperfusion, 72 h (Example 3); type: in vivo, rat
# SD rats = details: rat, in vivo
# [1] = J147 1.0, 10, 30 mg/kg at 2 hours after onset of ischemia, 72 h after stroke, dose-dependent manner
smiles,measurement,setting,value
COc1cccc(/C=N/N(C(=O)C(F)(F)F)c2ccc(C)cc2C)c1 [Compound J147],optimal effective dose,"male Sprague Dawley rats; iv, doses of 1, 10 and 30 mg/kg tested",10 mg/kg
same,infarct volume (TTC-stained sections),"male Sprague Dawley rats; rat, in vivo",large reduction
same,infarct volume relative to placebo (TTC-stained sections),"male Sprague Dawley rats; rat, in vivo",insignificant reduction
same,infarct volume (TTC-stained sections),"male Sprague Dawley rats; rat, in vivo, ip",modest reduction
same,effective optimal dose for the treatment of acute ischemic stroke in rats,"Male SD rats; 1.0, 10, 30 mg/kg tested",10 mg/kg
same,infarct volumes,Male SD rats; [1],significantly reduced
same,neurological deficit after reperfusion (Bederson score),Male SD rats; [1],significantly reduced
same,"protection from stroke in the absence of reperfusion (infarction, TTC-stained sections)",SD rats,fails to provide any significant protection
